Measured values from patent US7074768B2, “Modified protein kinase A-specific oligonucleotides and methods of their use” (Idera Pharmaceuticals, Inc., priority 1995, dated 2006).

Tested on: AR
Test: Histochemical analysis of GEO tumors: AR
Assay type: in vivo
Details: after two cycles
Text: Tumor specimens from the different groups of mice were examined by histochemical analysis at different time points to evaluate the expression of a variety of biological parameters.
TGFα and AR are growth factors which bind to EGFR and control human colon cancer growth through autocrine and paracrine mechanisms (F. Ciardiello and G. Tortora, Clin. Cancer Res. 4:821–828 (1998); D. S. Salomon, Crit. Rev. Oncol. Hematol. 19:183–232 (1995)).

HYB 165: Hybrid 18-mer mixed backbone antisense to PKA RIα, GCGUGCCTCCTCACUGGC (SEQ ID NO:4), 2-O-methyl ribonucleotides at 5′ and 3′ ends (sugars by position and backbone not given here; 2'-O-methyl ribonucleotides at both ends, mixed backbone)
expression of AR (in combination with taxol): further enhanced | expression of AR (single agent): inhibited the expression of TGF α and AR
